Columns and labels:
[1] = target: T1, YfiP (TuaA, tRNA U47 acp transferase A) (Escherichia coli, UniProt Q47319); experiment: ITC, […]°C, one-site binding model
T1 construct: gene tapT; E. coli YfiP with a C-terminal 6xHis-tag
T1 sequence (Q47319 1-232): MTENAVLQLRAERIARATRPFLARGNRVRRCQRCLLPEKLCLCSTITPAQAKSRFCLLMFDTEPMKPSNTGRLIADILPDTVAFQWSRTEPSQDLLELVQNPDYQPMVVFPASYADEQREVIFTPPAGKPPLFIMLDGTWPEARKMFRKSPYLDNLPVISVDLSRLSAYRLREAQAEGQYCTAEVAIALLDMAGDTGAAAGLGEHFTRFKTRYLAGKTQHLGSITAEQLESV

[2] = target: T1, YfiP (TuaA, tRNA U47 acp transferase A); experiment: ITC, […]°C, one-site binding model; also in vitro acp transfer to tRNA

Row | Kd [1] | SMILES | Kd [2]
1 | 131 µM | CSC[C@H]1O[C@@H](n2cnc3c(N)ncnc32)[C@H](O)[C@@H]1O [5-MTA, 5′-methyl 5′-deoxythioadenosine] | –
2 | 84 µM | Nc1ncnc2c1ncn2[C@@H]1O[C@H](CSCC[C@H](N)C(=O)O)[C@@H](O)[C@H]1O [SAH, S-adenosylhomocysteine] | –
3 | – | C[S+](CC[C@H](N)C(=O)O)C[C@H]1O[C@@H](n2cnc3c(N)ncnc32)[C@H](O)[C@@H]1O (stereo partly drawn) [SAM, S-adenosyl methionine] | 32 µM
